Test results as given in patent publication US20150299120A1, “Spirohydantoin compounds and their use as selective androgen receptor modulators” (NOVARTIS AG, priority 2012, published 2015).
Read-outs that look alike come from different tables or passages of the source.

Biological target: T1, androgen receptor (AR) (Homo sapiens, UniProt P10275)
T1 construct: transfecting C2C12 cells with a plasmid containing full-length AR; expressed in transfected cells; host or cells: mouse myoblastic C2C12 cells (ATCC CRL-1772), transiently transfected with AR-FL in pcDNA 3.1(+)
T1 sequence (P10275 1-920): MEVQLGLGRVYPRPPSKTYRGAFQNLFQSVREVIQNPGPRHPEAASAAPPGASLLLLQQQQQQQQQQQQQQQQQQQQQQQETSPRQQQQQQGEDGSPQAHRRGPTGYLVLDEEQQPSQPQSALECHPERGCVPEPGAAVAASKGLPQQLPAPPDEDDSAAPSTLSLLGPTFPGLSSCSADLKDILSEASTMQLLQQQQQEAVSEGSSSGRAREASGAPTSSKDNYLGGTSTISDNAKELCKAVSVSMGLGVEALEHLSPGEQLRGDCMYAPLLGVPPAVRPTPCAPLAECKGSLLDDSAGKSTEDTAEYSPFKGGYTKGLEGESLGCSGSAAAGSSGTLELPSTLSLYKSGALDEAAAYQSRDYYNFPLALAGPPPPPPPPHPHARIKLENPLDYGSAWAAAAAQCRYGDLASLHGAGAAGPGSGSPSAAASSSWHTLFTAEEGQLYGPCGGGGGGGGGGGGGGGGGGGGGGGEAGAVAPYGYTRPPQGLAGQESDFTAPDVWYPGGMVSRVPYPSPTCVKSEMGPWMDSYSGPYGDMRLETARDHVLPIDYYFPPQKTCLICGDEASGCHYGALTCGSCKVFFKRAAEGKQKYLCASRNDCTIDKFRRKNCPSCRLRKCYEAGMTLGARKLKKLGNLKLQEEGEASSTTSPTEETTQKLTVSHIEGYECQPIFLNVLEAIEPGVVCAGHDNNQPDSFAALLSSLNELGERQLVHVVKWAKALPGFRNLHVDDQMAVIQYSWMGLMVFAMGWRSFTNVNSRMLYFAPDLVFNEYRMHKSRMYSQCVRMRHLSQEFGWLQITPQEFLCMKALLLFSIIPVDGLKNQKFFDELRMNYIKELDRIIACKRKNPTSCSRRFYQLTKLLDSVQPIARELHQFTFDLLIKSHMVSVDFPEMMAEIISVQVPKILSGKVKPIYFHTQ
Experiment: Test 1: androgen receptor transcriptional activation (2XIDR17-luciferase) assay in transfected C2C12 cells
Assay type: cell-based
Conditions: for Emax: percentage activity relative to 1 μM DHT, read-out: Biological activity (C2C12 cell) Emax % (converted)
Description: A suitable assay to determine the ability of a ligand to transcriptionally activate androgen receptor (AR) is carried out using mouse myoblastic C2C12 cells. The assay involves transfecting C2C12 cells with a plasmid containing full-length AR along with an AR response element linked to luciferase (2XIDR17). The luminescence read-out at the end of the assay is measured using Victor 3 and is a direct measure of the transcriptional activity. The assay has been validated using the reference compound, BMS-564929, for which EC50 values have been reported in a similar set-up.
C2C12 cells were obtained from ATCC (Cat #CRL-1772) and maintained in DMEM modified to contain 4 mM L-glutamine, 4.5 g/L glucose, 1 mM sodium pyruvate and 1.5 g/L sodium bicarbonate and 10% FBS.
AR-FL in pcDNA 3.1(+) and 2XIDR17 in pGL4.26 plasmids prepared using Genelute plasmid miniprep kit from Sigma Cat #PLED35 Steadyglow Luciferase assay system Promega Cat #E2550
• C2C12 cells were seeded in a 96-well plate in DMEM (Dulbecco's Modified Eagle Medium) without phenol red and containing 10% CS-FBS (Charcoal-stripped Fetal Bovine Serum) at 8000 cells/well. • The next day, cells were transfected with an equimolar ratio of (Androgen Receptor-Full length) AR-FL and 2XIDR17-Luciferase at a total plasmid concentration of 200 ng/well using Lipofectamine 2000 following manufacturer's protocol. • For the transfection, 83 ng of AR-FL and 117 ng of 2XIDR17-Luciferase were in 12.5 μl of OptiMEM—Mix A. 0.4 μl of Lipofectamine 2000 was added to 12.5 μl of OptiMEM and incubated for 5 min at room temperature—Mix B. The two mixes A and B were mixed and incubated at room temperature for an additional fifteen minutes. An additional 50 μl of OptiMEM was added, gently mixed and this mixture was added to the cells in the 96-well plate. The above quantities are requirements per well of a 96-well plate. Master mixes were made for the entire plate, with proportional quantity of reagents being used. • 5 h after transfection, compounds were added to the wells in DMEM without phenol red and containing 10% CS-FBS, maintaining a final DMSO concentration of 0.5%. A typical dose response curve starts at 10 μM and includes a 7-point, log dilution, done in triplicates. • After overnight incubation with the compounds, 100 ul of working solution of Steadyglow reagent was added to the wells. • The plates were placed in a shaker for 15 min at the end of which the lysate containing luciferase was transferred to a white flat-bottom plate and read under a luminescence setting in Victor. • Background subtracted counts (Luminescence from DMSO control wells is considered the background) are used to calculate percentage activity, expressed relative to activity with 1 μM (Dihydrotestosterone) DHT (at least two sets of triplicates for 1 μM DHT are included per plate).
The EC50 curves for the compounds for 8 compound concentrations were fitted by the respective function using non-linear least-squares regression in Graphpad Prism 4.0 (Graphpad Software, San Diego, Calif., USA).

[1] = mouse myoblastic C2C12 cells transfected with full-length AR and 2XIDR17-luciferase, read-out: Biological activity (C2C12 cell) EC50
[2] = C2C12 cells, compound at 100 nM, relative to 1 μM DHT
[3] = C2C12 cells, compound at 5 μM, relative to 1 μM DHT
[4] = C2C12 cells, read-out: EC50 value in test 1

Structure (SMILES) | Emax (C2C12, C2C12 cells) [%] | EC50 [1] [nM] | further results
Cc1c(N2C(=O)N(C)C3(CCCC3C)C2=O)ccc(C#N)c1Cl (stereo not drawn) [1.7] | 91 |  | 
Cc1c(N2C(=O)N(C)[C@]3(CCC[C@@H]3F)C2=O)ccc(C#N)c1Cl [1.4(iv), 2-chloro-4-((5R,6S)-6-fluoro-1-methyl-2,4-dioxo-1,3-diazaspiro[4.4]nonan-3-yl)-3-methylbenzonitrile] |  | 0.79 | 
Cc1c(N2C(=O)N(CCCCCC#N)C3(CCCC3)C2=O)ccc(C#N)c1Cl [Example 9.1, 2-chloro-4-(1-(5-cyanopentyl)-2,4-dioxo-1,3-diazaspiro[4.4]nonan-3-yl)-3-methylbenzonitrile] | 108 | 8.7 ± 2.1 | 
Cc1c(N2C(=O)N(CCCF)C3(CCCC3)C2=O)ccc(C#N)c1Cl [Example 9.9, 2-chloro-4-(1-(3-fluoropropyl)-2,4-dioxo-1,3-diazaspiro[4.4]nonan-3-yl)-3-methylbenzonitrile] |  |  | % Biological activity (C2C12 cell) 100 nM [2]: 27%; % Biological activity (C2C12 cell) 5 μM [3]: 52%
Cc1c(N2C(=O)N(CC3CCOCC3)C3(CCCC3)C2=O)ccc(C#N)c1Cl [2-chloro-4-(2,4-dioxo-1-((tetrahydro-2H-pyran-4-yl)methyl)-1,3-diazaspiro[4.4]nonan-3-yl)-3-methylbenzonitrile] |  |  | percent activity relative to 1 μM DHT at a single concentration at 0.1 µM (C2C12, C2C12 cells, compound at 100 nM, relative to 1 μM DHT, read-out: % Biological activity (C2C12 cell) 100 nM): 5%; percent activity relative to 1 μM DHT at a single concentration at 5 µM (C2C12, C2C12 cells, compound at 5 μM, relative to 1 μM DHT, read-out: % Biological activity (C2C12 cell) 5 μM): 12%
CCOCCN1C(=O)N(c2ccc(C#N)c(Cl)c2C)C(=O)C12CCCC2 [2-chloro-4-(1-(2-ethoxyethyl)-2,4-dioxo-1,3-diazaspiro[4.4]nonan-3-yl)-3-methylbenzonitrile] |  |  | EC50 [4]: > 30000 nM
CCN1C(=O)N(c2ccc(C#N)c(Cl)c2C)C(=O)C12CCCC2O (stereo not drawn) [1.3] | 79 |  | 
Cc1c(N2C(=O)N(Cc3ncc(CO)o3)C3(CCCC3)C2=O)ccc(C#N)c1Cl [Example 8.8, 2-chloro-4-(1-((5-(hydroxymethyl)oxazol-2-yl)methyl)-2,4-dioxo-1,3-diazaspiro[4.4]nonan-3-yl)-3-methylbenzonitrile] |  |  | % Biological activity (C2C12 cell) 100 nM [2]: 26%; % Biological activity (C2C12 cell) 5 μM [3]: 70%
Cc1c(N2CC3(CCCC3F)OC2=O)ccc(C#N)c1Cl (stereo not drawn) [2-chloro-4-(6-fluoro-2-oxo-1-oxa-3-azaspiro[4.4]nonan-3-yl)-3-methylbenzonitrile] |  |  | EC50 [4]: > 30000 nM
Cc1c(N2C(=O)N(CCOCC(C)C)C3(CCCC3)C2=O)ccc(C#N)c1Cl [2-chloro-4-(1-(2-isobutoxyethyl)-2,4-dioxo-1,3-diazaspiro[4.4]nonan-3-yl)-3-methylbenzonitrile] |  |  | EC50 [4]: > 30000 nM
Cc1c(N2CC3(CCCC3O)N(C)C2=O)ccc(C#N)c1Cl (stereo not drawn) [2.0] | 76 | 2910 | 
Cc1c(N2C(=O)N(CCc3ccncc3)C3(CCCC3)C2=O)ccc(C#N)c1Cl [Example 8.2, 2-chloro-4-(2,4-dioxo-1-(2-(pyridin-4-yl)ethyl)-1,3-diazaspiro[4.4]nonan-3-yl)-3-methylbenzonitrile] | 70 | 203 | 
Cc1c(N2CC3(CCCC3O)OC2=O)ccc(C#N)c1Cl (stereo not drawn) [2-chloro-4-(6-hydroxy-2-oxo-1-oxa-3-azaspiro[4.4]nonan-3-yl)-3-methylbenzonitrile] |  |  | EC50 [4]: > 30000 nM
Cc1c(N2C(=O)N(CCOCC#N)C3(CCCC3)C2=O)ccc(C#N)c1Cl [Example 9.3, 2-chloro-4-(1-(2-(cyanomethoxy)ethyl)-2,4-dioxo-1,3-diazaspiro[4.4]nonan-3-yl)-3-methylbenzonitrile] | 91 | 19.9 ± 1.7 | 
Cc1c(N2C(=O)N(CCN3CCOCC3)C3(CCCC3)C2=O)ccc(C#N)c1Cl [2-chloro-3-methyl-4-(1-(2-morpholinoethyl)-2,4-dioxo-1,3-diazaspiro[4.4]nonan-3-yl)benzonitrile] |  |  | EC50 [4]: > 30000 nM
Cc1c(N2C(=O)N(C)C3(CCOC3)C2=O)ccc(C#N)c1Cl (stereo not drawn) [10.0] | 60 |  | 
Cc1c(N2C(=O)N(C)C3(CCC(O)C3)C2=O)ccc(C#N)c1Cl (stereo not drawn) [Example 6.0, 2-chloro-4-(7-hydroxy-1-methyl-2,4-dioxo-1,3-diazaspiro[4.4]nonan-3-yl)-3-methylbenzonitrile] | 70 | 53 | 
COC1N(c2ccc(C#N)c(Cl)c2C)C(=O)OC12CCCC2O (stereo not drawn) [Example 4.1, 2-chloro-4-(6-hydroxy-4-methoxy-2-oxo-1-oxa-3-azaspiro[4.4]nonan-3-yl)-3-methylbenzonitrile] | 40 | 2590 | 
Cc1c(N2C(=O)N(C)C3(CCCC3F)C2=O)ccc(C#N)c1Cl (stereo not drawn) [1.4] | 60 |  | 
Cc1c(N2C(=O)N(Cc3cnco3)C3(CCCC3)C2=O)ccc(C#N)c1Cl [Example 8.9, 2-chloro-3-methyl-4-(1-(oxazol-5-ylmethyl)-2,4-dioxo-1,3-diazaspiro[4.4]nonan-3-yl)benzonitrile] | 87 | 25 | 
Cc1c(N2C(=O)N(CCF)C3(CCCC3)C2=O)ccc(C#N)c1Cl [Example 9.0, 2-chloro-4-(1-(2-fluoroethyl)-2,4-dioxo-1,3-diazaspiro[4.4]nonan-3-yl)-3-methylbenzonitrile] | 99 |  | EC50 (Biological activity (C2C12 cell) EC50 (nM), mouse myoblastic C2C12 cells transfected with full-length AR and 2XIDR17-luciferase): 45.4 nM
Cc1cnc(CN2C(=O)N(c3ccc(C#N)c(Cl)c3C)C(=O)C23CCCC3)o1 [Example 8.7, 2-chloro-3-methyl-4-(1-((5-methyloxazol-2-yl)methyl)-2,4-dioxo-1,3-diazaspiro[4.4]nonan-3-yl)benzonitrile] | 112 | 8.9 | 
Cc1c(N2C(=O)N(CCCC#N)C3(CCCC3)C2=O)ccc(C#N)c1Cl [Example 9.4, 2-chloro-4-(1-(3-cyanopropyl)-2,4-dioxo-1,3-diazaspiro[4.4]nonan-3-yl)-3-methylbenzonitrile] | 90 | 26.5 | 
Cc1c(N2C(=O)N(CCOC(C)C)C3(CCCC3)C2=O)ccc(C#N)c1Cl [2-chloro-4-(1-(2-isopropoxyethyl)-2,4-dioxo-1,3-diazaspiro[4.4]nonan-3-yl)-3-methylbenzonitrile] |  |  | EC50 [4]: > 30000 nM
Cc1c(N2C(=O)N(CCC#N)C3(CCCC3)C2=O)ccc(C#N)c1Cl [Example 9.8, 2-chloro-4-(1-(2-cyanoethyl)-2,4-dioxo-1,3-diazaspiro[4.4]nonan-3-yl)-3-methylbenzonitrile] | 85 | 169 ± 82 | 
